“And” between values parts separate entries of the source, which are not always exact repeats. Equal entries are not always repeated.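 Results reflect a 48-hour exposure of cells in 96-well plates to compound at five concentrations. The concentration for 50% growth inhibition is given as GI50. TGI denotes the concentration required for complete inhibition of growth.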
Legend:
Assay in all cases: NCI-60 cell line screen, 48 h
A549 NSCLC = system: A549 NSCLC
EKVX NSCLC = system: EKVX NSCLC
HCC-2998 colon = system: HCC-2998 colon
HOP-92 NSCLC = system: HOP-92 NSCLC
HS 578T breast = system: HS 578T breast
SN12C renal = system: SN12C renal
SW-620 colon = system: SW-620 colon
UO-31 renal = system: UO-31 renal

Row | Compound | GI50 (A549 NSCLC) | TGI (A549 NSCLC) | GI50 (EKVX NSCLC) [µM] | TGI (EKVX NSCLC) [µM] | GI50 (HCC-2998 colon) | TGI (HCC-2998 colon) | GI50 (HOP-92 NSCLC) | TGI (HOP-92 NSCLC) [µM] | GI50 (HS 578T breast) | TGI (HS 578T breast) | GI50 (SN12C renal) | TGI (SN12C renal) [µM] | GI50 (SW-620 colon) | TGI (SW-620 colon) [µM] | GI50 (UO-31 renal) | TGI (UO-31 renal)
1 | C[As](C)SCC(COC(=O)C(Cl)c1ccccc1)OC(=O)C(Cl)c1ccccc1 (stereo not given) | 3.84 µM | 15.2 µM | 2.44 | 24.3 | 1.72 µM | 4.75 µM | 0.381 µM | 3.9 | 3.4 µM | 46.5 µM | 2.48 µM | 10.9 | 0.491 µM | 28.2 | 1.55 µM | > 44.4 µM
2 | CC(=O)C1=C(O)C=C2Oc3c(C(=O)/C=C/c4c(Cl)cccc4Cl)c(O)c(C)c(O)c3[C@]2(C)C1=O | 1.58 µM | 5.53 µM | 1.63 | 7.24 | 2.57 µM | 5.26 µM |  |  | 2.39 µM | 7.86 µM | 0.527 µM | 1.76 | 0.64 µM | 3.13 | 1.92 µM | 7.59 µM
3 | COc1cc(-c2cc(O)c(-c3ccc4ccccc4n3)c(=O)[nH]2)cc(OC)c1OC |  | > 95 µM |  | > 100 |  | > 100 µM |  | > 81.6 |  | > 100 µM |  | > 100 |  | 66.1 |  | > 100 µM
4 | O=C(c1ccccc1)C(CN1CCCCC1)c1ccccc1 (stereo not given) | 16.1 µM | 43.8 µM | 3.5 | 16.7 | 3.97 µM | 12.3 µM | 1.16 µM | 3.88 | 4.49 µM | 33.2 µM | 1.79 µM | 3.8 | 0.583 µM | 2.17 | 1.58 µM | 3.07 µM
5 | CC(C)=CCC[C@](C)(O)[C@H]1CC[C@]2(C)[C@@H]1CC[C@@H]1[C@@]3(C)CC/C(=N/O)C(C)(C)[C@@H]3CC[C@]12C | 5.86 µM | 62.9 µM | 10.1 | > 100 | 12.9 µM | 50.8 µM | 7.48 µM | 26.2 | 20.2 µM | > 100 µM | 8.48 µM | 35.2 | 6.98 µM | > 100 | 16.9 µM | > 100 µM
6 | CO/N=C(\C)c1ccc(Nc2cc(-c3ccccc3)nc3ccc(OC)cc23)cc1 | 4.28 µM | 70.2 µM | 3.27 | 8.53 | 3.16 µM | 15.9 µM | 2.14 µM | 6.77 | 3.5 µM | 9.44 µM | 1.7 µM | 4.11 | 3.4 µM | 11.9 | 5.19 µM | > 100 µM
7 | Cc1nc(-c2cn3c(n2)-c2ccc(-c4cnn(C(C)(C)C(N)=O)c4)cc2OCC3)n(C(C)C)n1 | 0.332 µM and 0.392 µM | 16.8 µM and > 10 µM | 1.48 | > 10 | 0.895 µM and 0.295 µM | 17.2 µM and > 10 µM | 0.0211 µM and 0.0253 µM |  | 0.147 µM and 0.169 µM | 13 µM and > 10 µM | 1.54 µM and 1.04 µM | > 100 | 8.08 µM and 3.48 µM | > 100 | 0.185 µM and 0.14 µM | 15.3 µM and > 8.44 µM
8 | COc1c2ccoc2c(OC)c2oc(=O)ccc12 |  | > 100 µM |  | > 100 |  | > 100 µM |  |  |  | > 100 µM |  | > 100 |  | > 100 |  | > 100 µM
9 | Cc1nc2ccccc2c(/C=C/c2ccc(Cl)cc2)c1C(=O)/C=C/c1ccc(C(F)(F)F)cc1 | 1.41 µM | 3.48 µM | 0.865 | 2.31 | 0.393 µM | 1.35 µM | 1.07 µM | 2.47 | 0.659 µM | 3.57 µM | 1.15 µM | 2.62 | 0.251 µM | 0.761 | 0.238 µM | 0.807 µM
10 | C/C(=N\NS(=O)(=O)c1ccc(C)cc1)P(=O)(O)O |  | > 100 µM |  | > 100 |  |  |  | > 100 |  | > 100 µM |  | > 100 |  | > 100 |  | > 100 µM
11 | Nc1c(C(=O)Nc2cccc(F)c2)sc2nc3c(cc12)C(=O)CCC3 | 0.378 µM | > 100 µM |  |  | 1.01 µM | > 100 µM | 0.589 µM | > 100 | 0.634 µM | > 100 µM | 0.743 µM | > 100 | 0.35 µM | > 100 |  | > 100 µM
12 | CCN(CC)CCCNCc1cc(-c2ccccc2)nc2ccccc12 | 81.6 µM | > 100 µM | 89.2 | > 100 | 14.9 µM | 31.1 µM | 2.34 µM | 9.41 | 16.8 µM | > 100 µM | 4.52 µM | > 100 | 2.75 µM | 21.9 | 3.96 µM | 50.5 µM
13 | C[C@@]12CCC[C@@](C)(C(=O)O)C1CC[C@]13C[C@@](O)(CO)[C@](O)(CCC12)C3 (stereo not given in full) | > 100 µM | > 100 µM | > 100 | > 100 | > 100 µM | > 100 µM |  |  | > 100 µM | > 100 µM | > 100 µM | > 100 | > 100 µM | > 100 | > 100 µM | > 100 µM
14 | O=C(Nc1ccc(Cl)c(Cl)c1)Nc1c(Oc2ccc(Cl)c(Cl)c2)ccc(Cl)c1S(=O)(=O)O | 3.53 µM | > 100 µM |  |  | 2.11 µM | > 100 µM |  |  | 2.21 µM | 8.79 µM | 4.48 µM | > 100 | 1.27 µM | > 100 | 3.13 µM | > 100 µM
15 | COC(=O)c1cc(O)c2cc3c(cc2c1-c1cc(OC)c(OC)c(OC)c1)OCO3 | 0.762 µM | > 100 µM | 2.63 | > 100 | 6.85 µM | > 100 µM | 4.19 µM | 48.1 | 1.43 µM | 9.48 µM |  |  | 0.496 µM | > 100 | 4.92 µM | > 100 µM
16 | C=C1CCC2C3(C)COC(c4ccccc4)OC3CCC2(C)C1/C=C/C1=CCOC1=O (stereo not given) | 6.87 µM | 48.1 µM | 13.7 | > 100 | 7.75 µM | 19.4 µM |  |  | 1.86 µM | 8.61 µM | 3.82 µM | 15.9 | 2.96 µM | 10 | 4.88 µM | 18.2 µM
17 | C#Cc1c(/C=C/C(=O)OCC)ccc2ccccc12 | 30.4 µM | > 100 µM | 28 | 84.3 | 27.4 µM | > 100 µM |  |  | 27.2 µM | 83.2 µM | 13.3 µM | 39.4 | 32.2 µM | > 100 | 12.7 µM | 26.6 µM
18 | O=C(c1ccccc1)C1OC1c1ccc([N+](=O)[O-])cc1 (stereo not given) | 24.9 µM | > 100 µM | 22.8 | > 100 | 11 µM | 26.1 µM |  |  | 3.33 µM | 35.2 µM | 10.1 µM | > 100 | 2.42 µM | 6.6 | 5.94 µM | 93.2 µM
19 | NCC1OC(n2cnc3c(N)ncnc32)CC1O (stereo not given) |  | > 100 µM |  | > 100 |  |  |  | > 100 |  | > 100 µM |  | > 100 |  | > 100 |  | > 100 µM
20 | CS(=O)(=O)CCc1cccc(C(=O)c2cnn(-c3ccc(F)cc3)c2N)c1 | > 25 µM | > 25 µM |  |  | > 25 µM | > 25 µM | > 25 µM | > 25 | > 25 µM | > 25 µM | > 25 µM | > 25 | > 25 µM | > 25 | > 25 µM | > 25 µM
21 | Nc1nnnn1CCO |  | > 100 µM |  | > 100 |  |  |  | > 100 |  | > 100 µM |  | > 100 |  | > 100 |  | > 100 µM
22 | O=C(COc1cc(O)c2c(=O)cc(-c3ccccc3)oc2c1)Nc1ccccc1C(F)(F)F | 1.71 µM | 3.75 µM | 9.37 | 62.4 | > 100 µM | > 100 µM | 2.13 µM | 6.71 | 2.6 µM | 7.79 µM | 4.02 µM | > 100 | 3.56 µM | > 100 |  | 
23 | NCCOCCOCCNc1nc(-c2ccccc2)nc(N2CCN(c3ccccn3)CC2)n1 | 14.4 µM | 30.1 µM |  |  | 8.86 µM | 22.3 µM | 1.84 µM | 11.1 | 15.4 µM | 41 µM | 17.1 µM | 32.8 | 13.2 µM | 28.4 | 12.7 µM | 25.8 µM
24 | COc1cc(C2SCC(=O)N2c2ncc(C)s2)cc(OC)c1OC (stereo not given) | 45.4 µM | > 50 µM | 43.9 | > 50 |  |  |  |  | 44.6 µM | > 50 µM | 13.3 µM | > 50 | 21.4 µM | > 50 | > 50 µM | > 50 µM
25 | Clc1ccc(-c2c3c(nn2-c2ccccn2)CCc2ccccc2-3)cc1Cl | > 100 µM | > 100 µM | > 100 | > 100 | > 100 µM | > 100 µM |  |  | > 100 µM | > 100 µM | > 100 µM | > 100 | > 100 µM | > 100 | > 100 µM | > 100 µM
26 | CN(C)CCNC(=O)c1cccc(N(C)C(=O)c2ccccc2)c1[N+](=O)[O-] |  | > 100 µM |  |  |  | > 100 µM |  |  |  | > 100 µM |  | > 10 |  | > 100 |  | > 100 µM
